Laboratory results: US5827837A, “Polyanion anti-inflammatory agents” (priority 1996, dated 1998)

Tested on: P-selectin (P-COS)
Assay: LS 180 cell adhesion to COS cells transfected with full length P-selectin (P-COS)
Assay type: cell-based
Conditions: 0.5 mM, 2 experiments
Description: The effect of inositols on selectin-dependent cell adhesion was assessed using several in vitro assay systems. In the first, a colon cancer cell line, LS 180, was chosen because it binds to all three selecting.
COS-1 cells were transfected as described (Seed, B., et al., Proc. Natl. Acad. Sci., U.S.A., 84:3365, 1987; Aruffo, A., Current Protocols In Molecular Biology, eds. supra, 1992) with pCDM7/pCDM8 expression vectors containing the full-length E-, P- and L-selectin cDNA. Transfected COS-1 cells were seeded on gelatin coated coverslips.

For `O=P(O)(O)O[C@H]1[C@H](OP(=O)(O)O)[C@@H](OP(=O)(O)O)[C@H](OP(=O)(O)O)[C@@H](OP(=O)(O)O)[C@H]1OP(=O)(O)O` [InsP6, myo-inositol hexakisphosphate], the “inhibition of LS 180 cell adhesion to P-COS” value was 95±5%.
